We go through 35 molecules from patent US20050197350A1, “Novel quinoline, tetrahydroquinazoline, and pyrimidine derivatives and methods of treatment related to the use thereof” (TAISHO PHARMACEUTICAL CO., LTD., priority 2003, published 2005).

The subject of the test is MCH receptors. Kind of test: MCH receptor activity class (method not given).
[1] abbreviates: class by percent of control at 10^-7 M or IC50.
Setting [2] is: activity class 1-3: percent of control at 10^-7 M or IC50.
The mark [3] stands for this setting: MCH receptor activity class 1-3 (percent of control at 10^-7 M or IC50).
Setting [4] is: class by percent of control at 10^−7 M or IC50.
The mark [5] stands for this setting: class 1-3 by percent of control at 10^-7 M or IC50.
Where [6] appears, read: MCH receptor, class by percent of control at 10^-7 M or IC50.
The mark [7] stands for this setting: activity class per percent of control at 10^-7 M or IC50.

On to `COc1ccc(CN[C@H]2CC[C@@H](Nc3nc4c(c(N(C)C)n3)CCCC4)CC2)c(OC)c1OC` [compound 1336], for which the class under setting [1] is recorded as 3 (Class 3 The value of percent of control at 10^−7 M was more than 60% or the value of IC50 was more than 200 nM.).
The same measure, in the same setting: to `COc1cc(CNC[C@H]2CC[C@@H](Nc3nc4c(c(N(C)C)n3)CCCC4)CC2)cc(I)c1O` [compound 1381] belongs 1 (Class 1: The value of percent of control at 10^−7 M was less than 40% or the value of IC50 was less than 50 nM.).
The same measure, in the same setting: to `CN(C)c1ccnc(N[C@H]2CC[C@@H](CNC(=O)c3cccc([N+](=O)[O-])c3)CC2)n1` [compound 389] belongs 3 (Class 3 The value of percent of control at 10^−7 M was more than 60% or the value of IC50 was more than 200 nM.).
`CN(C)c1nc(N[C@H]2CC[C@@H](NC(=O)NCc3ccccc3)CC2)nc2c1CCCC2` [compound 1812]: the class under setting [1] was 3 (Class 3 The value of percent of control at 10^−7 M was more than 60% or the value of IC50 was more than 200 nM.).
With `CN(C)c1cc(N[C@H]2CC[C@@H](NC(=O)OCc3ccccc3Cl)CC2)nc2ccccc12` [compound 1556], the class under setting [2] is reported as 3 (Class 3 The value of percent of control at 10^−7 M was more than 60% or the value of IC50 was more than 200 nM.).
Regarding `CN(C)c1cc(N[C@H]2CC[C@@H](NC(=S)Nc3ccccc3-c3ccccc3)CC2)nc2ccccc12` [compound 2290], the class under setting [3] was 3 (Class 3 The value of percent of control at 10^−7 M was more than 60% or the value of IC50 was more than 200 nM.).
As to `Cc1cnc(N[C@H]2CC[C@@H](NC(=O)C[S+]([O-])c3ccccc3Cl)CC2)nc1N(C)C` (relative stereo) [compound 2881, 2-[(2-chlorophenyl)sulfinyl]-N-(cis-4-{[4-(dimethylamino)-5-methylpyrimidin-2-yl]amino}cyclohexyl)acetamide], under setting [4], the class is recorded as 1 (Class 1: The value of percent of control at 10^−7 M was less than 40% or the value of IC50 was less than 50 nM.).
For the molecule `CSc1ncccc1C(=O)N[C@H]1CC[C@@H](Nc2nccc(N(C)C)n2)CC1` [compound 260], under setting [1], the class is 3 (Class 3 The value of percent of control at 10^−7 M was more than 60% or the value of IC50 was more than 200 nM.).
In the case of `CN(C)c1nc(N[C@H]2CC[C@@H](NC(=O)Cc3ccc(Cl)cc3)CC2)nc2c1CCCC2` [compound 464, 2-(4-chlorophenyl)-N-(cis-4-{[4-(dimethylamino)-5,6,7,8-tetrahydroquinazolin-2-yl]amino}cyclohexyl)acetainide], the class under setting [5] is listed as 1 (Class 1: The value of percent of control at 10^−7 M was less than 40% or the value of IC50 was less than 50 nM.).
On to `CC(C)c1cccc(C(C)C)c1NC(=O)N[C@H]1CC[C@@H](Nc2nc3c(c(N(C)C)n2)CCCC3)CC1` [compound 1797, N-(2,6-diisopropylphenyl)-N′-(cis-4-{[4-(dimethylamino)-5,6,7,8-tetrahydroquinazolin-2-yl]amino}cyclohexyl)urea], for which the class under setting [1] is on record as 2 (Class 2: The value of percent of control at 10^−7 M was from 40% to 60% or the value of IC′50 was from 50 nM to 200 nM.).
As for `CN(C)c1nc(N[C@H]2CC[C@@H](NC(=O)c3ccc(Br)cc3)CC2)nc2c1CCCC2` [compound 458], the class under setting [5] is 2 (Class 2: The value of percent of control at 10^−7 M was from 40% to 60% or the value of IC′50 was from 50 nM to 200 nM.).
On to `Cc1ccc(C(=O)NC[C@H]2CC[C@@H](Nc3nc4c(c(N(C)C)n3)CCCC4)CC2)cc1[N+](=O)[O-]` [compound 605], for which the class under setting [1] was 3 (Class 3 The value of percent of control at 10^−7 M was more than 60% or the value of IC50 was more than 200 nM.).
With `CN(C)c1nc(N[C@H]2CC[C@@H](NC(=S)Nc3ccc(OC(F)F)cc3)CC2)nc2c1CCCC2` [compound 1987], the class under setting [6] was 3 (Class 3 The value of percent of control at 10^−7 M was more than 60% or the value of IC50 was more than 200 nM.).
Consider `CC(Oc1ccccc1)C(=O)NC[C@H]1CC[C@@H](Nc2nc3c(c(N(C)C)n2)CCCC3)CC1` (relative stereo) [compound 611], for which the class under setting [1] is reported as 3 (Class 3 The value of percent of control at 10^−7 M was more than 60% or the value of IC50 was more than 200 nM.).
With `CN(C)c1nc(N[C@H]2CC[C@@H](NC(=S)NCc3ccco3)CC2)nc2c1CCCC2` [compound 1940], the class under setting [6] is on record as 3 (Class 3 The value of percent of control at 10^−7 M was more than 60% or the value of IC50 was more than 200 nM.).
Regarding `CN(C)c1cc(N[C@H]2CC[C@@H](NC(=O)c3cccc(Oc4ccccc4)c3)CC2)nc2ccccc12` [compound 731], the class under setting [1] was 3 (Class 3 The value of percent of control at 10^−7 M was more than 60% or the value of IC50 was more than 200 nM.).
In the case of `CCOc1cc(CNC[C@H]2CC[C@@H](Nc3cc(N(C)C)c4ccccc4n3)CC2)ccc1O` [compound 1159], the class under setting [1] is reported as 3 (Class 3 The value of percent of control at 10^−7 M was more than 60% or the value of IC50 was more than 200 nM.).
With `CN(C)c1cc(N[C@H]2CC[C@@H](NC(=O)c3c(F)c(F)c(F)c(F)c3F)CC2)nc2ccccc12` [compound 130], under setting [6], the class is listed as 3 (Class 3 The value of percent of control at 10^−7 M was more than 60% or the value of IC50 was more than 200 nM.).
Turning to `CN(C)c1nc(N[C@H]2CC[C@@H](CNC(=O)OCC3c4ccccc4-c4ccccc43)CC2)nc2c1CCCC2` [compound 1617], the class under setting [2] is 3 (Class 3 The value of percent of control at 10^−7 M was more than 60% or the value of IC50 was more than 200 nM.).
Still for that read-out and setting: then `CN(C)c1ccnc(N[C@H]2CC[C@@H](NCCOc3ccc(Br)cc3)CC2)n1` [compound 1518], with 3 (Class 3 The value of percent of control at 10^−7 M was more than 60% or the value of IC50 was more than 200 nM.).
For `CN(C)c1nc(N[C@H]2CC[C@@H](NC(=O)c3ccc4c(c3)OCO4)CC2)nc2c1CCCC2` [compound 483], the class under setting [5] is 3 (Class 3 The value of percent of control at 10^−7 M was more than 60% or the value of IC50 was more than 200 nM.).
For the molecule `COc1ccc(Br)c(C(=O)N[C@H]2CC[C@@H](Nc3cc(N(C)C)c4ccccc4n3)CC2)c1` [compound 121], under setting [6], the class was 3 (Class 3 The value of percent of control at 10^−7 M was more than 60% or the value of IC50 was more than 200 nM.).
Still for that read-out and setting: to `CCCCc1ccc(NC(=O)N[C@H]2CC[C@@H](Nc3nc4c(c(N(C)C)n3)CCCC4)CC2)cc1` [compound 1897] belongs 3 (Class 3 The value of percent of control at 10^−7 M was more than 60% or the value of IC50 was more than 200 nM.).
For the molecule `COc1cccc(C(=O)N[C@H]2CC[C@@H](Nc3nccc(N(C)C)n3)CC2)c1` [compound 238, N-(cis-4-{[4-(dimethylamino)pyrimidin-2-yl]amino}cyclohexyl)-3-methoxybenzamide], the class under setting [1] was 2 (Class 2: The value of percent of control at 10^−7 M was from 40% to 60% or the value of IC′50 was from 50 nM to 200 nM.).
Consider `Cc1cccc(Cl)c1NC(=O)NC[C@H]1CC[C@@H](Nc2cc(N(C)C)c3ccccc3n2)CC1` [compound 2374], for which the class under setting [3] was 3 (Class 3 The value of percent of control at 10^−7 M was more than 60% or the value of IC50 was more than 200 nM.).
On to `CN(C)c1ccnc(N[C@H]2CC[C@@H](NC(=O)c3csc(-c4ccc5c(c4)CCO5)n3)CC2)n1` [compound 359, 2-(2,3-dihydro-1-benzofuran-5-yl)-N-(cis-4-{[4-(dimethylamino)pyrimidin-2-yl]amino}cyclohexyl)-1,3-thiazole-4-carboxamide], for which the class under setting [1] is 1 (Class 1: The value of percent of control at 10^−7 M was less than 40% or the value of IC50 was less than 50 nM.).
For the molecule `CN(C)c1cc(N[C@H]2CC[C@@H](CNC(=O)Nc3c(Cl)cc(Cl)cc3Cl)CC2)nc2ccccc12` [compound 2369, N-[(cis-4-{[4-(dimethylamino)quinolin-2-yl]amino}cyclohexyl)methyl]-N′-(2,4,6-trichlorophenyl)urea], under setting [3], the class was 1 (Class 1: The value of percent of control at 10^−7 M was less than 40% or the value of IC50 was less than 50 nM.).
The same measure, in the same setting: then `CN(C)c1ccnc(N[C@H]2CC[C@@H](NC(=S)Nc3ccc(I)cc3)CC2)n1` [compound 2317], with 3 (Class 3 The value of percent of control at 10^−7 M was more than 60% or the value of IC50 was more than 200 nM.).
Take `COc1cc(OC)c(CNC[C@H]2CC[C@@H](Nc3cc(N(C)C)c4ccccc4n3)CC2)cc1Br` [compound 1144]: the class under setting [7] was 2 (Class 2: The value of percent of control at 10^−7 M was from 40% to 60% or the value of IC′50 was from 50 nM to 200 nM.).
In the case of `Cc1cc(N(C)C)nc(NC[C@H]2CC[C@@H](NC(=O)c3ccc(F)c(F)c3)CC2)n1` [compound 2734, N-[cis-4-({[4-(dimethylamino)-6-methylpyrimidin-2-yl]amino}methyl)cyclohexyl]-3,4-difluorobenzamide], under setting [4], the class was 3 (Class 3 The value of percent of control at 10^−7 M was more than 60% or the value of IC50 was more than 200 nM.).
In the case of `Cc1ccc([N+](=O)[O-])cc1NC(=O)N[C@H]1CC[C@@H](Nc2nc3c(c(N(C)C)n2)CCCC3)CC1` [compound 1715], the class under setting [1] was 3 (Class 3 The value of percent of control at 10^−7 M was more than 60% or the value of IC50 was more than 200 nM.).
In the case of `CN(C)c1ccnc(N[C@H]2CC[C@@H](CNCc3c(F)c(F)cc(F)c3F)CC2)n1` [compound 1533], the class under setting [2] is 3 (Class 3 The value of percent of control at 10^−7 M was more than 60% or the value of IC50 was more than 200 nM.).
Take `COC(=O)c1cccc(NC(=S)N[C@H]2CC[C@@H](Nc3cc(N(C)C)c4ccccc4n3)CC2)c1` [compound 2282]: the class under setting [1] was 3 (Class 3 The value of percent of control at 10^−7 M was more than 60% or the value of IC50 was more than 200 nM.).
Still for that read-out and setting: to `CN(C)c1nc(N[C@H]2CC[C@@H](CNC(=O)c3cccc(I)c3)CC2)nc2c1CCCC2` [compound 620] belongs 3 (Class 3 The value of percent of control at 10^−7 M was more than 60% or the value of IC50 was more than 200 nM.).
`CN(C)c1cc(N[C@H]2CC[C@@H](NCc3ccc(F)c(Br)c3)CC2)nc2ccccc12` [compound 1105]: under setting [7], the class is given as 3 (Class 3 The value of percent of control at 10^−7 M was more than 60% or the value of IC50 was more than 200 nM.).
